In paper PMC10541198, “Specific quinone reductase 2 inhibitors reduce metabolic burden and reverse Alzheimer’s disease phenotype in mice” (The Journal of Clinical Investigation, 2023):

Columns and labels:
QR1 = molecular target: T1, QR1 (Homo sapiens, UniProt P15559); experiment: QR1 selectivity assay, fluorescence; format: biochemical; conditions: Figure 2D; readout not stated
T1 construct: purchased Sigma-Aldrich
From the text: (§1) A drug discovery campaign strategy was initiated to screen compounds for QR2-specific, cell-free inhibition and in vitro activity, followed by SAR optimization (Figure 2A) to achieve highly specific and potent QR2 inhibitor synthesis. In order to establish a varied and chemically amenable starting point, we developed a high-throughput QR2 assay (Supplemental Methods) that we screened against a library with approximately 200,000 compounds. […] Compounds that replicated the initial hit result were then assayed similarly against QR1 to evaluate compound specificity (Figure 2B). From the HTS, a chemically tractable and attractive series of compounds containing a sulfone flanked by an amine and a heterocycle were identified and selected for SAR development (Figure 2C, Supplemental Methods, Supplemental Table 1, and Supplemental Table 2). […]
(§2) menadione and 10 nM of QR2) were dispensed in 1536-well black Nunc plates (Thermo-Fisher) using aMultidrop™ Combi Reagent Dispenser (Thermo-Fisher) and pre-incubated with compounds for 10min. BNAH (200µM) was t hen added (3 µL) to the reaction using a BioNex Solutions BNX1536plate washer and the plates were incubated for another 10 min. Fluorescence intensity was followed in a PHERAstar FS multi-mode plate reader (BMG Labtech) us i ng an optic module with excitation at 360 nm and emission at 470 nm. The initial HTS includedapproximately 200,000 compounds at a single concentrationof 5 µM. The chemical libraries used were Selleck Chemicals Bioactives, the Drug-like set from Enamine, HitFinder collection from Maybridge, Spectrum Collection from Microsource, Lopa c from Sigma -Aldrich and the diversity set s from Chem Div and Che m Br idge .
Initial ‘‘hit’’ compounds were defined as causing >30% reduction of enzyme activity. Compounds suspected to be fluorescent were re -assayed in an absorbance assay at 350 nm using the same reaction but in a higher volume (100 µL), in a transparent plate (Greiner Bio- One). ‘‘Hit’’ compounds resulting from both the fluorescence and absorbance assay wer e t ested in a concentration- response, and IC50 values were de t er mi ne d. In parallel, the same

QR2 = molecular target: T2, QR2 (Homo sapiens, UniProt P16083); experiment: QR2 activity assay, BNAH fluorescence (standard/primary); format: biochemical; conditions: Figure 2D; readout not stated
T2 construct: purchased Sigma-Aldrich
T2 sequence (P16083 1-231): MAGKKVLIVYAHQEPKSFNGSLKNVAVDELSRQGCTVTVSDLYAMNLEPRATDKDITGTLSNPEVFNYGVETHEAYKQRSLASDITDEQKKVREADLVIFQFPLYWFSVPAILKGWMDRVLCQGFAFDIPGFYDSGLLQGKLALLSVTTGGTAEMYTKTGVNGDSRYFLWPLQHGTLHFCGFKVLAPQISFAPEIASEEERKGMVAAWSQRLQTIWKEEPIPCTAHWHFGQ
From the text: as §1
High Throughput Screen (H TS)
The enzymatic activity of QR 2 (10 nM) was measur ed using menadione (both Sigm a -Aldrich) as subst r at e and dihydro- benzylnicotinamide (BNAH; Tocris) as co-substrate(62). The reaction was performed in 50 mM Tri s HCl, 150 mM NaCl 0.01%Tween- 20 pH=8.5 (Sigma-Aldrich) at r oom tem per atur e. Briefl y, 3 µL of menadione alone (200 µM) or a mixture of menadione and QR2 (200 µM of […]
as §2
Initial ‘‘hit’’ compounds were defined as causing >30% reduction of enzyme activity. Compounds suspected to be fluorescent were re -assayed in an absorbance assay at 350 nm using the same reaction but in a higher volume (100 µL), in a transparent plate (Greiner Bio- One). ‘‘Hit’’ compounds resulting from both the fluorescence and absorbance assay wer e t ested in a concentration- response, and IC50 values were de t er mi ne d. In parallel, the same concentration response methodologywas appliedin a selectivity assay where QR2 enzymewas replaced byQR1 […]
Chromatography System, with UV/Vis detector 2489, using XBridge® Prep C18 10 μm 10x250 mm […]
was monitored by Wat er s UPLC-MS system: Acquity UPLC® H class with PDA detector, and using […]

[1] = Solubility in water / saline; format: physicochemical

T1 sequence (P15559 whole entry): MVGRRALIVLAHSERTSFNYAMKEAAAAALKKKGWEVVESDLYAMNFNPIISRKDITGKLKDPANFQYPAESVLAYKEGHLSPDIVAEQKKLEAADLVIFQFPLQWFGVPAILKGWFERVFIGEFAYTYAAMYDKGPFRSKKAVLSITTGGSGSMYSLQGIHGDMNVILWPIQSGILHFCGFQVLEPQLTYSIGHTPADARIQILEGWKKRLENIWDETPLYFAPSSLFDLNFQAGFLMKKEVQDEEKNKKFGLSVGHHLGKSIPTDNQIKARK

Q: Which IC50 (QR1) does the source give for `Cc1ccc(-c2nnc(-c3ccccc3)o2)cc1S(=O)(=O)NCCCN1CCCC1=O` [YB-818] here?
A: > 9.99 µM

Q: What about the IC50 (QR2) of the same compound?
A: > 9.99 µM

Q: With `Cc1ccc(-c2cn3cccc(C)c3n2)cc1S(=O)(=O)N1CCN(C)CC1` [YB-540] as the compound, how does the solubility in water [1] read?
A: water soluble

Q: What about the IC50 (QR2) of the same compound?
A: 0.21 µM

Q: What does the source list for `Cc1ccc(-c2nnc(-c3ccccc3)o2)cc1S(=O)(=O)N1CCN(C(=O)c2ccco2)CC1` [YB-789]?
A: IC50 (QR1): > 9.99 µM; IC50 (QR2): 5.71 µM

Q: What does the source list for `Cc1ccn2cc(-c3ccc(C)c(S(=O)(=O)Nc4ccc(Cl)cc4)c3)nc2c1` [YB-816]?
A: IC50 (QR1): > 9.99 µM; IC50 (QR2): > 9.99 µM

Q: What does the source list for `Cc1ccc(-c2cn3cccc(C)c3n2)cc1S(=O)(=O)N1CCN(C(=O)c2ccco2)CC1` [YB-792]?
A: IC50 (QR1): 3.33 µM; IC50 (QR2): 0.008 µM

Q: What does the source list for `Cc1ccn2cc(-c3ccc(C)c(S(=O)(=O)NCc4cccnc4)c3)nc2c1` [YB-812]?
A: IC50 (QR1): > 9.99 µM; IC50 (QR2): 6.92 µM

Q: Which IC50 (QR2) does the source give for `Cc1nc(-c2ccc(C)c(S(=O)(=O)N3CCC(C)CC3)c2)cs1` [YB-104] here?
A: 7.39 µM
